Results: US20230348394A1, “COMPOSITIONS AND METHODS FOR TREATING MUSCULAR DYSTROPHIES” (The Regents of the University of California, priority 2020, published 2023)

Assays:
[1] = Preliminary safety assessment, IP injection in C57/B16 mice; type: in vivo
Protocol: For the preliminary safety assessment of OT-9, we performed IP injections in 6 month old C57/B16 males. The mice were injected with 100 μl of vehicle (5% DMSO (Sigma), 95% PBS), 100 μl of 30 mg/kg of OT-9 in vehicle, or 100 μl of 50 mg/kg of OT-9 in vehicle (n=1 mouse per treatment). […] For assessment of activity, 20-weeks old male mdx littermates were injected in both tibialis anterior muscles with vehicle (5% DMSO, 95% PBS) or 86 μg of OT-9. Two mice were injected in both TAs with vehicle and three mice were injected in both TAs with 200 of OT-9 (9.4 mM solution containing 86 μg of OT-9). After 4 hours, the muscles were harvested and processed for gene expression analysis. For assessment of activity of OT-9m after local administration, 19-22-weeks old mdx males were injected in both tibialis anterior muscles with vehicle (5% DMSO, 95% PBS) or 3 mg/kg and 10 mg/kg of OT-9m. After 4 hours, the muscles were harvested and processed for gene expression analysis. For assessment of activity of OT-9m after systemic administration, 13-weeks old mdx males were injected subcutaneously with vehicle (4% PEG-200 in hydroxypropyl-b-cyclodextrin) or 20 mg/kg/day of OT-9m. After 13 days of treatment, the muscles were harvested and processed for gene expression analysis.
To evaluate the in vivo safety and activity of OT-9, we performed two pilot studies in wild-type C57/B16 and mdx mice. For the preliminary safety assessment of OT-9, we performed IP injections in 6-month old C57/B16 males. The mice were injected with vehicle, 30 mg/kg of OT-9, or 50 mg/kg of OT-9 (n=1).

[2] = Half-life analysis in PBS pH 7.4; type: physicochemical; settings: PBS pH 7.4, 37° C.
Protocol: Half-life analysis was performed by Eurofins Panlabs Inc. using 1 μM of compound with a final DMSO concentration of 0.5%. PBS or plasma from CD-1 mice was pre-warmed to 37° C. for 5 mins before addition of the test compounds and continued incubation at 37° C. At 0, 30, 60, 120, 240, and 1440 mins an aliquot of solution containing compounds was mixed with acetonitrile/methanol, mixed, and centrifuged. The supernatants were used for HPLC-MS/MS analysis.

[3] = system: SSPN gene expression; experiment: SSPN gene expression (qPCR) in dystrophin-deficient H2K mdx myotubes; type: cell-based, murine; settings: 0.5 to 50 μM
Protocol: (§1) C2C12 cells (American Type Culture Collection) were grown at 37° C. with 5% CO2 in growth medium containing DMEM (Gibco) with 20% FBS (Sigma-Aldrich). Upon reaching 90-100% confluency, myoblasts were induced to differentiate by replacing the medium with differentiation medium consisting of DMEM with 2% horse serum (Sigma-Aldrich). Conditionally immortalized H2K WT and mdx myoblasts with a nonsense mutation in exon 23 of dystrophin were a gift from Terrance Partridge, Ph.D. (Children's National Medical Center, Washington, D.C.). […]
RNA from myotubes treated for 48 hrs was extracted from cells using Trizol-based (Thermo Fisher Scientific) phase separation, Chomczynski et al., Biotechniques. […] RNA concentrations were determined using a NanoDrop 1000 (Thermo Fisher Scientific) and 750 ng of RNA in a 20 Id reaction was reverse transcribed using iScript cDNA synthesis (Bio-Rad) with the following cycling conditions: 25° C. for 5 mins, 42° C. for 30 mins, 85° C. for 5 mins. […] For qPCR of human samples, TaqMan assays were used to quantify SSPN (assay ID Hs01025520m 1) and ACTB (assay ID Hs01060665_g1) with the following reaction conditions: 50° C. for 2 mins, 95° C. for 10 mins, 40 cycles of 95° C. for 15 seconds and 62° C. for 1 minute. […]

[4] = system: SSPN mRNA; experiment: SSPN gene expression in wild-type C2C12 myotubes; type: cell-based, mouse
Protocol: as §1, with “D.C.). See, Morgan et al., Dev Biol. 1994; 162(2):486-98 Myoblasts were allowed to proliferate on 0.01% gelatin (Sigma-Aldrich) coated plates at 33° C. with 5% CO2 with growth medium containing DMEM, 20% HI-FBS (Invitrogen), 2% L-glutamine (Sigma-Aldrich), 2% chicken embryo extract (Accurate Chemical), 1% penicillin-streptomycin (Sigma-Aldrich), and 20 U/ml of fresh interferon gamma (Gibco).” for “D.C.).”
RNA from myotubes treated for 48 hrs was extracted from cells using Trizol-based (Thermo Fisher Scientific) phase separation, Chomczynski et al., Biotechniques. […] RNA concentrations were determined using a NanoDrop 1000 (Thermo Fisher Scientific) and 750 ng of RNA in a 20 Id reaction was reverse transcribed using iScript cDNA synthesis (Bio-Rad) with the following cycling conditions: 25° C. for 5 mins, 42° C. for 30 mins, 85° C. for 5 mins. For mouse qPCR, SsoFast EvaGreen Supermix (Bio-Rad), 400 nM of each optimized forward and reverse primer (SSPN F: 5′ […] 3′, SSPN R: 5′ […] 3′, BACT F: 5′ […] 3′, BACT R: 5′ […] 3′), and cDNA corresponding to 37.5 ng RNA were used to amplify cDNA measured by QuantStudio 5 Real-Time PCR System (Thermo Fisher Scientific) with the following reaction conditions: 55° C. for 2 mins, 95° C. for 2 mins, 40 cycles of 95° C. for 10 seconds and 62° C. for 30 seconds, and dissociation stage. […] Data was analyzed using the ddCT method and normalized to reference gene ACTB with vehicle-treated samples serving as the calibrator (relative expression of vehicle control=1). […]

[5] = IP 30 mg/kg or 50 mg/kg, observed 72 hours, n=1

With CCN(CC)c1ccc2cc(C(=O)Nc3ccc(C(=O)N4CCCCCC4)cc3)c(=O)oc2c1 [OT-9] the “appearance of the dosing solution” value ([1]; 50 mg/kg solution in 5% DMSO, 95% PBS) was “some insoluble particles were observed”, the “liver, kidneys, pancreas and intestine” value [1, 5] was “normal weight and size” and the “observation of the injection site” value [1, 5] was “No signs of inflammation, necrosis or compound accumulation”. The half-life at 1 μM [2] was 49 min, the “concentration at which the concentration-dependent SSPN mRNA response peaked” value [3] was 5.5 µM and the “SSPN mRNA levels after compound removal” value ([4]; 5 μM for 4 hours, 4, 24 and 48 hours after compound removal) was “returned to baseline levels”. The “SSPN mRNA levels over the vehicle control” value ([4]; 5 μM for 4 hours, immediately after compound removal (0h)) was 1.5 fold and the “SSPN mRNA levels” value ([4]; 5 μM, 48 hours) was “increased SSPN mRNA levels”.
